Measured values from patent publication US11000033B2, “Ketone or oxime compound, and herbicide” (NISSAN CHEMICAL CORPORATION, priority 2014, dated 2021).

Key:
Assay type in all cases: in vivo
Galium spurium = assay: Test Example 4: herbicidal effect by soil treatment (symbol Q); conditions: application herbicide amount 320 g/ha
Method in brief: (§1)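 Seeds were sown in sterilized diluvial soil, covered with about 1.5 cm of soil, and the soil surface was sprayed with a water-diluted emulsion of the compound at a predetermined rate. Plants grew in a greenhouse at 25° C. to 30° C.; effects were scored visually 3 weeks after application.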

Scirpus juncoides = assay: Test Example 1: herbicidal activity, application before weed generation in submerged conditions (symbol B); conditions: application herbicide amount 320 g/ha
Method in brief: (§2)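 Pre-emergence, paddy conditions: emulsifiable formulation diluted in water, dosed onto floodwater (4 cm depth) on sowing day. Alluvial soil; weeds sown mixed; rice transplanted at 2.5-leaf stage. Greenhouse 25–30 °C, 3 wk. Score 0–5 (5 = ≥90% kill, 0 = ≤5%).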

[1] = system: Echinochloa crus-galli var. crus-galli; assay: Test Example 5: herbicidal effect by foliage application, plastic box (symbol H); conditions: 320 g/ha, 3 weeks after application
Method in brief: (§3)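 Leaf-applied emulsion, water-diluted to a preset herbicide dose, on two-week-old seedlings raised in a 25° C. to 30° C. greenhouse; injury rated at 3 weeks using earlier criteria.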

[2] = system: Echinochloa oryzacola Vasing.; assay: Test Example 1: herbicidal activity, application before weed generation in submerged conditions (symbol A); conditions: application herbicide amount 320 g/ha
Method in brief: as §2

Setaria viridis [3] = assay: Test Example 5: herbicidal effect by foliage application, plastic box (symbol G); conditions: 320 g/ha, 3 weeks after application
Method in brief: as §3

Amaranthus retroflexus = assay: Test Example 4: herbicidal effect by soil treatment (symbol N); conditions: application herbicide amount 320 g/ha
Method in brief: as §1

Veronica persica = assay: Test Example 4: herbicidal effect by soil treatment (symbol R); conditions: application herbicide amount 320 g/ha
Method in brief: as §1

Alopecurus myosuroides = assay: Test Example 5: herbicidal effect by foliage application, plastic box (symbol J); conditions: 320 g/ha, 3 weeks after application
Method in brief: as §3

Setaria viridis [4] = assay: Test Example 4: herbicidal effect by soil treatment (symbol G); conditions: application herbicide amount 320 g/ha
Method in brief: as §1

Chenopodium album = assay: Test Example 4: herbicidal effect by soil treatment (symbol O); conditions: application herbicide amount 320 g/ha
Method in brief: as §1

Compound | Herbicidal effect grade, Q: Galium spurium (Galium spurium) | Herbicidal effect grade, B: Scirpus juncoides (Scirpus juncoides) | H: Echinochloa crus-galli var. crus-galli, herbicidal effect (criteria of Test Example 1) [1] | Herbicidal effect grade, A: Echinochloa oryzacola Vasing. [2] | G: Setaria viridis, herbicidal effect (criteria of Test Example 1) (Setaria viridis [3]) | Herbicidal effect grade, N: Amaranthus retroflexus (Amaranthus retroflexus) | Herbicidal effect grade, R: Veronica persica (Veronica persica) | J: Alopecurus myosuroides, herbicidal effect (criteria of Test Example 1) (Alopecurus myosuroides) | Herbicidal effect grade, G: Setaria viridis (Setaria viridis [4]) | other results
CC(=O)CC1CC(O)=C(c2c(C)cc(C)cc2Br)C1=O (centres unmarked) [7-011] | 0 (Herbicidal ratio of 5% or lower (almost no effect)) | 1 (Herbicidal ratio of 5% or higher and lower than 20%) | 5 (Herbicidal ratio of 90% or more (almost completely withered)) | 2 (Herbicidal ratio of 20% or higher and lower than 40%) | 3 (Herbicidal ratio of 40% or higher and lower than 70%) | 0 (Herbicidal ratio of 5% or lower (almost no effect)) | 0 (Herbicidal ratio of 5% or lower (almost no effect)) | 4 (Herbicidal ratio of 70% or higher and lower than 90%) | 0 (Herbicidal ratio of 5% or lower (almost no effect)) | 
CON=C(C)CC1CC(OC(=O)N2CCOCC2)=C(c2c(C)cc(-c3ccc(Cl)cc3)cc2C)C1=O (mixture of isomers) [6-062] |  | 4 (Herbicidal ratio of 70% or higher and lower than 90%) | 5 (Herbicidal ratio of 90% or more (almost completely withered)) | 5 (Herbicidal ratio of 90% or more (almost completely withered)) | 5 (Herbicidal ratio of 90% or more (almost completely withered)) |  |  | 5 (Herbicidal ratio of 90% or more (almost completely withered)) |  | Q: Galium spurium, herbicidal effect grade (Galium spurium): 0 (Herbicidal ratio of 5% or lower (almost no effect)); N: Amaranthus retroflexus, herbicidal effect grade (Amaranthus retroflexus): 0 (Herbicidal ratio of 5% or lower (almost no effect)); R: Veronica persica, herbicidal effect grade (Veronica persica): 3 (Herbicidal ratio of 40% or higher and lower than 70%); G: Setaria viridis, herbicidal effect grade (Setaria viridis [4]): 5 (Herbicidal ratio of 90% or more (almost completely withered))
CC(=O)CC1CC(O)=C(c2c(C)cc(OCC(F)(F)F)cc2C)C1=O (centres unmarked) [7-015] | 0 (Herbicidal ratio of 5% or lower (almost no effect)) | 1 (Herbicidal ratio of 5% or higher and lower than 20%) | 5 (Herbicidal ratio of 90% or more (almost completely withered)) | 5 (Herbicidal ratio of 90% or more (almost completely withered)) | 5 (Herbicidal ratio of 90% or more (almost completely withered)) | 0 (Herbicidal ratio of 5% or lower (almost no effect)) | 0 (Herbicidal ratio of 5% or lower (almost no effect)) | 5 (Herbicidal ratio of 90% or more (almost completely withered)) | 5 (Herbicidal ratio of 90% or more (almost completely withered)) | 
COc1cc(Br)cc(F)c1C1=C(O)CC(CC(C)=O)C1=O (centres unmarked) [7-029] | 0 (Herbicidal ratio of 5% or lower (almost no effect)) | 0 (Herbicidal ratio of 5% or lower (almost no effect)) |  | 2 (Herbicidal ratio of 20% or higher and lower than 40%) |  | 0 (Herbicidal ratio of 5% or lower (almost no effect)) | 0 (Herbicidal ratio of 5% or lower (almost no effect)) | 3 (Herbicidal ratio of 40% or higher and lower than 70%) | 4 (Herbicidal ratio of 70% or higher and lower than 90%) | Herbicidal effect grade, O: Chenopodium album (Chenopodium album): 0 (Herbicidal ratio of 5% or lower (almost no effect))
COC(=O)CON=C(C)CC1CC(O)=C(c2c(C)cc(C)cc2C)C1=O (centres unmarked) [1-023] |  | 0 (Herbicidal ratio of 5% or lower (almost no effect)) |  | 4 (Herbicidal ratio of 70% or higher and lower than 90%) |  |  |  |  |  | Q (Galium spurium) herbicidal effect grade (Galium spurium): 0 (Herbicidal ratio of 5% or lower (almost no effect)); H: Echinochloa crus-galli var. crus-galli, herbicidal effect grade [1]: 4 (Herbicidal ratio of 70% or higher and lower than 90%); G: Setaria viridis, herbicidal effect grade (Setaria viridis [3]): 1 (Herbicidal ratio of 5% or higher and lower than 20%); O (Chenopodium album) herbicidal effect grade (Chenopodium album): 0 (Herbicidal ratio of 5% or lower (almost no effect)); N (Amaranthus retroflexus) herbicidal effect grade (Amaranthus retroflexus): 0 (Herbicidal ratio of 5% or lower (almost no effect)); J: Alopecurus myosuroides, herbicidal effect grade (Alopecurus myosuroides): 4 (Herbicidal ratio of 70% or higher and lower than 90%); G (Setaria viridis) herbicidal effect grade (Setaria viridis [4]): 3 (Herbicidal ratio of 40% or higher and lower than 70%)
